The text below walks through data of PMC12053997, “D-enantiomeric antibiofilm peptides effective against anaerobic Cutibacterium acnes biofilm” (Microbiology Spectrum, 2025).

In assay [1] the test system is C. acnes strains (C2, C5, PJI2, PJI8). Nature of the assay: microbe, parasite or virus in culture. As to the method:
(§1) C. acnes strains were isolated on Columbia agar containing 5% sheep blood (BioRad, Hercules, California, USA) and cultivated in Brain Heart Infusion (BHI) broth (BioRad, Hercules, California, USA) for 5 days, under anaerobic conditions using the GenBox system (Biomérieux, Marcy l’Etoile, France), at 37°C. For all assays, one colony of isolated C. acnes strains was inoculated in a 1.5 mL vial containing 1.5 mL of BHI. After 5–6 days of incubation (stationary phase reached after 4 days) at 37°C, the absorbance (at 600 nm) of the bacterial culture was adjusted to 1. The bacterial suspension was then diluted in BHI broth at 1/100 (OD: 0.01) and 1 mL of this suspension was inoculated in each well of 24- or 48-well plates.
(§2) Peptides were added to a 48-well plate at the desired concentrations in BHI medium and diluted bacteria were inoculated as described in the “Bacterial Strain Culture” section. Plates were incubated at 37°C, under anaerobic conditions using the GenBox system, for 5–6 days. The effect of the peptide on planktonic growth was determined by measuring the MIC which was defined as the concentration in the well containing the minimal amount of compound that leads to the absence of visible bacterial growth, according to Wiegand et al. ([38]). […] Finally, 48-well plates containing cultures with or without peptides were washed three times with water to remove unattached bacteria. Adhered bacteria were stained with 1 mL of 0.2% crystal violet for 20 min, then washed with water, and crystal violet was extracted with 95% ethanol (vol/vol). The quantity of biofilm (biomass) was analyzed by measuring the absorbance of the crystal violet suspension at 595 nm using the SpectroStar nano spectrophotometer (BMG Labtech, Ortenberg, Germany). The Minimal Biofilm Inhibition Concentration (MBIC) was defined as the concentration in the well containing the minimal quantity of peptide where the crystal violet absorbance, corrected by the blank, was null. Experiments were performed three independent times in technical duplicate for each strain.

For assay [2] the test system is unchanged. As to the method: as §1, §2

Values after ≈ are worked out from the molar mass of the structure shown. Where two headings read alike, the source gives them in different places. Where a SMILES comes first, the peptide text is derived from it. Where no end group is shown, it is not given here. [ ]: non-standard residue; d: D form.

On to `CC[C@@H](C)[C@@H](NC(=O)[C@@H](C)NC(=O)[C@@H](CCCNC(=N)N)NC(=O)[C@@H](Cc1c[nH]c2ccccc12)NC(=O)[C@@H](CCC(N)=O)NC(=O)[C@H](N)C(C)C)C(=O)N[C@H](CCCNC(=N)N)C(=O)N[C@@H](C(=O)N[C@H](CCCNC(=N)N)C(=O)N[C@@H](C(=O)N[C@@H](C(=O)N[C@H](CCCNC(=N)N)C(N)=O)[C@H](C)CC)C(C)C)C(C)C` [DJK5, reference compound] (H-[dV][dQ][dW][dR][dA][dI][dR][dV][dR][dV][dI][dR]-NH2), for which the MICs in assay [1] (strains (C2, C5, PJI2, PJI8)) fell in the range of 16 to 32 µg/mL.

Turning to `CC[C@@H](C)[C@@H](NC(=O)[C@@H](CCCNC(=N)N)NC(=O)[C@H](N)CCCCN)C(=O)N[C@H](CCCNC(=N)N)C(=O)N[C@H](Cc1c[nH]c2ccccc12)C(=O)N[C@@H](C(=O)N[C@@H](C(=O)N[C@H](CC(C)C)C(=O)N[C@H](CCCNC(=N)N)C(=O)N[C@@H](C(=O)N[C@@H](C(=O)N[C@H](CCCNC(=N)N)C(N)=O)[C@H](C)CC)C(C)C)[C@H](C)CC)C(C)C` [AB101-D] (H-[dK][dR][dI][dR][dW][dV][dI][dL][dR][dV][dI][dR]-NH2), the MICs in assay [1] (strains (C2, C5, PJI2, PJI8)) fell in the range of 16 to 32 µg/mL.

In assay [1] (strains (C2, C5, PJI2, PJI8)), `CC[C@@H](C)[C@@H](NC(=O)[C@@H](CCCNC(=N)N)NC(=O)[C@@H](CCCNC(=N)N)NC(=O)[C@@H](Cc1c[nH]c2ccccc12)NC(=O)[C@@H](CCC(N)=O)NC(=O)[C@H](N)C(C)C)C(=O)N[C@H](CC(C)C)C(=O)N[C@@H](C(=O)N[C@H](CCCNC(=N)N)C(=O)N[C@@H](C(=O)N[C@@H](C(=O)N[C@H](CCCNC(=N)N)C(N)=O)[C@H](C)CC)C(C)C)C(C)C` [AB009-D] (H-[dV][dQ][dW][dR][dR][dI][dL][dV][dR][dV][dI][dR]-NH2) showed an MICs of 16 to 32 µg/mL.

Consider `CO[C@H]1/C=C/O[C@@]2(C)Oc3c(C)c(O)c4c(O)c(c(/C=N/N5CCN(C)CC5)c(O)c4c3C2=O)NC(=O)/C(C)=C\C=C\[C@H](C)[C@H](O)[C@@H](C)[C@@H](O)[C@@H](C)[C@H](OC(C)=O)[C@@H]1C` [Rifampicin, rifampicin, reference compound], for which the MBIC was 0.002 to 0.004 µg/mL in assay [2] (strain C2, n=3); 0.008 µg/mL in assay [2] (strain C5, n=3); 0.004 to 0.008 µg/mL in assay [2] (strain PJI2, n=3); 0.008 µg/mL in assay [2] (strain PJI8, n=3). Further, the MIC in assay [1] (Cutibacterium acnes) came to 0.008 mg/L (≈ 9.72 nM); in assay [1] (strain C5, n=3), 0.008 mg/L (≈ 9.72 nM); in assay [1] (strain PJI2, n=3) it was 0.008 mg/L (≈ 9.72 nM); in assay [1] (strain PJI8, n=3), 0.008 mg/L (≈ 9.72 nM). Further, the MBC in assay [1] (Cutibacterium acnes, strain C2, n=3) was above 0.064 mg/L; in assay [1] (Cutibacterium acnes, strain C5, n=3), above 0.064 mg/L; in assay [1] (Cutibacterium acnes, strain PJI2, n=3), above 0.064 mg/L; in assay [1] (Cutibacterium acnes, strain PJI8, n=3) it was 0.008 to 0.016 mg/L (≈ 9.72 to 19.4 nM).

With “VRLIVAVRIWRR-NH2 [Peptide 1018, reference compound]”, the MBIC in assay [2] (strain C2, crystal violet absorbance 595 nm null, n = 3 (n = 2 for 1018, AB008-D)) was 32 µg/mL; in assay [2] (strain C5, crystal violet absorbance 595 nm null, n = 3 (n = 2 for 1018, AB008-D)) it was 32 µg/mL; in assay [2] (strain PJI2, crystal violet absorbance 595 nm null, n = 3 (n = 2 for 1018, AB008-D)), 32 µg/mL; in assay [2] (strain PJI8, crystal violet absorbance 595 nm null, n = 3 (n = 2 for 1018, AB008-D)), 32 µg/mL. Further, the MIC was above 64 mg/L in assay [1] (strain C2, BHI, anaerobic, 37°C, 5–6 days, n = 3 (n = 2 for 1018, AB008-D)); above 64 mg/L in assay [1] (strain C5, BHI, anaerobic, 37°C, 5–6 days, n = 3 (n = 2 for 1018, AB008-D)); above 64 mg/L in assay [1] (strain PJI2, BHI, anaerobic, 37°C, 5–6 days, n = 3 (n = 2 for 1018, AB008-D)); above 64 mg/L in assay [1] (strain PJI8, BHI, anaerobic, 37°C, 5–6 days, n = 3 (n = 2 for 1018, AB008-D)). For the same compound, the MBC in assay [1] (strain C2, no colonies on blood agar after 5–6 days anaerobic, n = 3 (n = 2 for 1018, AB008-D)) was above 64 mg/L; in assay [1] (strain C5, no colonies on blood agar after 5–6 days anaerobic, n = 3 (n = 2 for 1018, AB008-D)) it was above 64 mg/L; in assay [1] (strain PJI2, no colonies on blood agar after 5–6 days anaerobic, n = 3 (n = 2 for 1018, AB008-D)), above 64 mg/L; in assay [1] (strain PJI8, no colonies on blood agar after 5–6 days anaerobic, n = 3 (n = 2 for 1018, AB008-D)) it was above 64 mg/L.

`CC[C@@H](C)[C@@H](NC(=O)[C@@H](CCCNC(=N)N)NC(=O)[C@@H](CCCNC(=N)N)NC(=O)[C@@H](Cc1c[nH]c2ccccc12)NC(=O)[C@@H](CCC(N)=O)NC(=O)[C@H](N)C(C)C)C(=O)N[C@@H](C(=O)N[C@@H](C(=O)N[C@H](CCCNC(=N)N)C(=O)N[C@@H](C(=O)N[C@@H](C(=O)N[C@H](CCCNC(=N)N)C(N)=O)[C@H](C)CC)C(C)C)C(C)C)[C@H](C)CC` [AB008-D] (H-[dV][dQ][dW][dR][dR][dI][dI][dV][dR][dV][dI][dR]-NH2) displayed an MBIC in assay [2] (strains (C2, C5, PJI2, PJI8)) of 32 µg/mL. This compound returned an MBC in assay [1] (strains (C2, C5, PJI2, PJI8)) above 64 mg/L.
